Patent US6689748B1, “Method of treating mast cell activation-induced diseases with a proteoglycan” (priority 1998, dated 2004)

Key:
Type in all cases: cell-based
[1] = system: mast cells purified from peritoneal cavities of male Sprague/Dawley rats; assay: Histamine secretion from purified rat peritoneal mast cells after saccharide preincubation and wash, stimulated with C48/80 or SP; conditions: preincubated with 10^−5 M saccharide 60 min 37° C., washed twice; for Mast Cell Secretion (% inhibition), C48/80: stimulated with 10^−5 M C48/80, n = 4; for Mast Cell Secretion (% inhibition), SP: stimulated with 10^−5 M Substance P, n = 3
Experimental: We studied the effect of chondroitin sulfate on histamine secretion from mast cells purified from peritoneal cavities of male Sprague/Dawley rats (300g, Charles River) over 25% Metrizamide (Accurate Scientific). Mast cells were preincubated with 10^−5 M saccharide for 60 min at 37° C. followed by two washes and resuspension in saccharide-free medium prior to stimulation with 10^−5 M of the mast cell secretagogue, compound 48/80 (C48/80) or the neuropeptide Substance P (SP). As the cells were washed free of saccharide, any inhibitory effect was not due to any interference with binding of C48/80 or SP to the cell surface. Consequently, this effect is distinct from reports showing that certain monosaccharide-containing lectins inhibit C48/80-induced mast cell secretion (Matsuda, K., et al., Jpn. J. Pharmacol. 64:1, 1994).

[2] = system: mast cells purified from 300g male Sprague/Dawley rats; assay: Histamine secretion from purified rat mast cells, 15 min preincubation, washed, C48/80 stimulation; conditions: for Mast Cell Secretion, % of Total: 15 min preincubation, washed, then C48/80 0.1 μg/ml 10 min
Experimental: Here, we investigated the effect of the polysaccharide chondroitin sulfate and of the flavonoid quercetin on histamine secretion from mast cells purified from 300g male Sprague/Dawley rats. Mast cells were preincubated with the test compound for 15 min at 37° C. and washed twice prior to stimulation with 0.1 μg/ml of the mast cell secretagogue compound 48/80 (C48/80) for 10 min. […] A combination of these naturally occurring products available OTC could be useful for the prevention of stress-induced gastrointestinal syndromes, such as irritable bowel syndrome or inflammatory bowel disease.

[3] = system: human leukemic mast cells; assay: Proliferation of cultured human leukemic mast cells; conditions: for Inhibition (%) of human leukemic mast cell proliferation: n = 5
Excerpt: Cell viability was about 90% or better.

CC(=O)N[C@H]1C(O)O[C@H](CO)[C@@H](O)[C@@H]1O (stereo partly drawn) [N-acetyl-glucosamine]
Mast Cell Secretion (% inhibition), C48/80 [1]: 37.4 ± 10.5% | Mast Cell Secretion (% inhibition), SP [1]: 30.8 ± 6.5%

O=c1c(O)c(-c2ccc(O)c(O)c2)oc2cc(O)cc(O)c12 [Quercetin, quercetin]
Mast Cell Secretion, % of Total ([2]; test compound 10^−6M): 30.5 ± 0.5%

N[C@H]1C(O)O[C@H](CO)[C@@H](O)[C@@H]1O.O=S(=O)(O)O (stereo partly drawn) [D-Glucosamine sulfate]
Mast Cell Secretion (% inhibition), C48/80 [1]: 33.7 ± 1.5% | Mast Cell Secretion (% inhibition), SP [1]: 27.5 ± 18.1%

chondroitin sulfate
Mast Cell Secretion (% inhibition), C48/80 [1]: 75.4 ± 3.6% | Mast Cell Secretion (% inhibition), SP [1]: 38.1 ± 12.2% | maximal inhibition of mast cell activation ([2]; 10^−4 M, C48/80 stimulation): 83% | Mast Cell Secretion, % of Total ([2]; test compound 10^−4M): 5.3 ± 1.3% | Mast Cell Secretion, % of Total ([2]; test compound 10^−5M): 15.3 ± 2.7% | Mast Cell Secretion, % of Total ([2]; test compound 10^−6M): 31.0 ± 2.9% | Inhibition (%) of human leukemic mast cell proliferation ([3]; Day 3, 10^−4M): 57.8 ± 13.3% | Inhibition (%) of human leukemic mast cell proliferation ([3]; Day 3, 10^−5M): 44.3 ± 12.7% | Inhibition (%) of human leukemic mast cell proliferation ([3]; Day 3, 10^−6M): 27.2 ± 12.1% | Inhibition (%) of human leukemic mast cell proliferation ([3]; Day 3, 10^−7M): 12.6 ± 9.6% | Inhibition (%) of human leukemic mast cell proliferation ([3]; Day 4, 10^−4M): 53.1 ± 8.9% | Inhibition (%) of human leukemic mast cell proliferation ([3]; Day 4, 10^−5M): 38.9 ± 9.1% | Inhibition (%) of human leukemic mast cell proliferation ([3]; Day 4, 10^−6M): 25.3 ± 9.6% | Inhibition (%) of human leukemic mast cell proliferation ([3]; Day 4, 10^−7M): 14.9 ± 6.9% | Inhibition (%) of human leukemic mast cell proliferation ([3]; Day 5, 10^−4M): 52.4 ± 13.9% | Inhibition (%) of human leukemic mast cell proliferation ([3]; Day 5, 10^−5M): 31.2 ± 15.8% | Inhibition (%) of human leukemic mast cell proliferation ([3]; Day 5, 10^−6M): 20.7 ± 15.2% | Inhibition (%) of human leukemic mast cell proliferation ([3]; Day 5, 10^−7M): 14.7 ± 6.8% | Cell viability ([3]; human leukemic mast cells cultured in the presence of chondroitin sulfate): ≥ 90%
